Ends that are not written are not given here.
Columns and labels:
pancreatic islets = assay: Glucose-stimulated insulin secretion (GSIS) of isolated islets; format: cell-based, rat; conditions: 12.0 mM glucose; 10 μg/mL peptide or 100 nM GLP-1; 60 min; FIG. 8
Protocol: The pancreases were procured from male adult Sprague-Dawley (SD) rats. After 7 days acclimation, the animals were sacrificed by cervical dislocation and the entire pancreas was removed and digested with collagenase to isolate islets. After digestion, islets were maintained at 37° C. in RPMI 1640 (Carlsbad Calif., USA) pH 7.4, containing 10% (v/v) fetal calf serum, 1% penicillin/streptomycin, and 10 mM glucose in a humid atmosphere (5% CO2/95% O2), without the addition of any compound (control), or with the addition of 100 nM glucagon like peptide-1 (GLP-1); or 10 μg/mL Peptide 1, Peptide 12, or Peptide 16, as summarized in Table 4 below. Cultured islets were rinsed in Krebs-Ringer bicarbonate buffer (KRB), pH 7.4, previously gassed with a mixture of CO2/O2 (5/95%), and pre-incubated in 1.0 ml of KRB containing 0.5% (w/v) BSA and 1.5 mM glucose at 37° C. for 45 min. After this period, groups of 5 islets were incubated in 0.6 ml KRB with the addition of 1.5 or 12.0 mM glucose, with or without the addition of peptides for 60 min. At the end of the incubation period, aliquots of the medium were collected for insulin quantitation.

[1] = Pharmacokinetics in mouse, subcutaneous bolus; format: in vivo; conditions: male, C57BL/6, mouse, in vivo, sc, 25 mg/kg
Protocol: (§1) After 7 days acclimation, male Sprague-Dawley (SD) rats weighing 210-250 g, or male C57BL/6 mice, weighing 19-24 g, in good health were used in the study. Peptide 1, Peptide 12 and Peptide 16 were dissolved in sterile normal saline and then they were injected via subcutaneous (sc) bolus or intravenous (iv) bolus at the dose level of 25 mg/kg. Three animals in each group were used for blood collection at the time point of 5 min, 15 min, 30 min, 1 h, 2 h, 4 h, 6 h, 8 h and 24 h post-dose. Blood samples (approximately 400 μL) were collected and placed into tubes containing EDTA-K2 and centrifuged at 8000 rpm for 6 minutes at 4° C. to separate plasma from the samples. The resulting plasma was stored frozen at −80° C. until being analyzed. Plasma concentrations of peptides were determined using tandem mass spectrometry (LC-MS/MS) analysis. A non-compartmental module of WinNonlin® Professional 5.2 (Pharsight; St. Louis Mo.), was used to calculate PK parameters. The abbreviation AUC(0-t) represents area under the curve from the time of dosing to the time of the last observation, the AUC(0-∞) represents area under the curve from the time of dosing to infinity, and the Cmax represents maximum concentration detected.

[2] = Pharmacokinetics in rat, subcutaneous bolus (Example VII); format: in vivo; conditions: male, Sprague-Dawley, rat, in vivo, sc, 25 mg/kg
Protocol: as §1

[3] = Pharmacokinetics in rat, intravenous bolus; format: in vivo; conditions: male, Sprague-Dawley, rat, in vivo, iv, 25 mg/kg
Protocol: as §1

normal C57BL/6J mice [4] = assay: Induction of extra islet insulin positive β cell clusters (EIC) in normal C57BL/6J mice; format: in vivo, mouse; conditions: analog 5 mg/kg vs INGAP-PP 50 mg/kg, 10 days
Protocol: After a 1-week acclimation, female C57BL/6J mice were randomly divided into 6 groups (n=5 per group). The control group received 10 mL/kg sterile normal saline via subcutaneous injection for 10 consecutive days. The other five groups received INGAP-PP (Peptide 1) or INGAP-PP analogs Peptide 12, Peptide 16, Peptide 29 or Peptide 31 at a dose of 50 mg/kg or 5 mg/kg per day, respectively, for the same period. On day 11, the pancreas was removed from each animal, cleared of fat and lymph nodes, weighed, and fixed in 10% neutral buffered formalin (NBF) for no longer than 24 hours before processing for morphometric analysis.
Immunohistochemistry analysis was used to assess the islet neogenic activities of peptides by measuring the number and area of extra islet insulin positive β cell clusters (EIC) of pancreatic tissues harvested from each individual group post 10 day treatment. EIC is indicative of islet neogenesis, as previously described by Lipsett and Finegood (Diabetes 51:1834-1841 (2002)).

[5] = Pharmacokinetics in SD rats after single subcutaneous dose (Example X); format: in vivo, rat; conditions: male, Sprague-Dawley, rat, in vivo, sc, 25 mg/kg
Protocol: After 7 days acclimation, a total of 15 male Sprague-Dawley (SD) rats (body weight: 230 to 270 g) in good health from Sino-British SIPPR/BK Lab Animal Ltd, Shanghai, were used in the study. All peptides, Peptide 1, Peptide 12, Peptide 16, Peptide 29 or Peptide 31, were dissolved in sterile normal saline respectively to yield the desired final concentrations and were administered via single subcutaneous (sc) dose.
Three animals in each group were used for blood collection at the time point of 5 min, 15 min, 30 min, 1 h, 2 h, 4 h, 6 h, 8 h and 24 h post-dose. Blood samples (approximately 400 μL) were collected and placed into tubes containing EDTA-K2 (dipotassium ethylene diamine tetraacetic acid) and centrifuged at 8000 rpm for 6 minutes at 4° C. to separate plasma from the samples. The resulting plasma was stored frozen at −80° C. until being analyzed.
Plasma concentrations of peptides were determined using tandem mass spectrometry (LC-MS/MS) analysis. A non-compartmental module of WinNonlin® Professional 5.2 (Pharsight; St. Louis Mo.) was used to calculate PK parameters. AUC(0-t) represents area under the curve from the time of dosing to the time of the last observation, the AUC(0-∞) represents area under the curve from the time of dosing to infinity, and the Cmax represents maximum concentration detected.

[6] = Peptide concentration in plasma and pancreas 30 min post dose; format: in vivo, rat; conditions: male, Sprague-Dawley, rat, in vivo, sc, 25 mg/kg, Peptide concentration
Protocol: To further characterize the pharmacokinetic (PK) properties of peptides, peptide concentration in pancreas—the target organ, was determined 30 min post dose. Briefly, INGAP-PP (Peptide 1), Peptide 12, or Peptide 31 was dissolved in sterile normal saline and then was administered via subcutaneous (sc) bolus at the dose level of 25 mg/kg to male Sprague-Dawley (SD) rats. Five animals in each group were used for blood and pancreas collection at the time point of 30 min post-dose. Blood samples (approximately 400 μL) were collected and placed into tubes containing EDTA-K2 and centrifuged at 8000 rpm for 6 minutes at 4° C. to separate plasma from the samples. After blood extraction and animal sacrifice, the pancreas was removed immediately from each animal, cleared of fat and lymph nodes, weighed, and placed into 5 fold volume of ice cold sterile normal saline with protease inhibitor cocktail (Merck Millipore, catalogue #539137) to homogenize with a homogenizer.
The peptide concentration of the plasma and pancreatic homogenate was determined immediately using tandem mass spectrometry (LC-MS/MS) analysis and the results are presented in Table 8.

[7] = format: physicochemical; conditions: pH 7.4
Protocol: Peptide stability in buffers was tested for INGAP-PP and selected analogs. 10 mg/mL of Peptide 1, Peptide 12, Peptide 16, Peptide 29 or Peptide 31 was dissolved in isotonic buffers with pH ranging from 4.0 to 8.0. […] Peptide 12 and Peptide 29 were stable in an isotonic phosphate buffer (pH 7.4) for more than 90 days at 4° C. (there was no sign of degradation at 90 days sample check point), and 60 days at 25° C.

[8] = Peptide stability in rat plasma; format: in vitro ADME; conditions: 100 μg/mL, 37° C.; FIG. 12, 13
Protocol: (§2) The stability of peptides was also tested in rat, mouse and human plasma. Briefly, a certain amount of peptides and eucatropine powder (positive control) was accurately weighed. Test compounds were dissolved in 50% methanol-water solution and diluted to 20 mg/mL, and eucatropine was dissolved in dimethylsulfoxide (DMSO) and diluted to 10 mM, as a stock solution. Eucatropine stock solution was diluted to 0.2 mM with DMSO as a working solution. A stop reagent was prepared containing 200 ng/mL midazolam and tolbutamide in acetonitrile. A volume of 300 μL of stop solution was added to each well of a 96-well deep-well plate placed on ice beforehand.
(§3) For the stability studies, peptides and eucatropine were spiked into plasma respectively, mixed well, and then 100 μL of each mixture solution was transferred into the pre-cooled stop reagent as 0 time point sample. The remaining mixtures were incubated in a 37° C. water bath with shaking at 100 rpm (n=2). The final incubation concentration was 1 μM for eucatropine and 100 μg/mL for all test compounds.
(§4) At desired time points, 100 μL of incubation mixture was transferred to the stop reagent to precipitate proteins. Samples were vortexed and centrifuged at RCF 5000×g for 10 minutes, and supernatant was transferred to a test plate. The samples were analyzed by LC-MS/MS.
(§5) Slope was calculated by plotting the natural logarithm of the percentage of remaining amount of test compounds and time, and T1/2 was calculated in accordance with the following formula.
For stability in rat plasma, the incubation time was 0, 15, 30, 60 and 120 min for Peptide 1 and eucatropine, and 0, 15, 30, 60, 120, and 240 min for Peptide 12, Peptide 16, Peptide 29 and Peptide 31.
In another stability study in rat plasma, the incubation time was 0, 30, 60 120 and 240 min for Peptide 2, Peptide 52, Peptide 64 and eucatropine.

[9] = Peptide stability in mouse plasma; format: in vitro ADME; conditions: 100 μg/mL, 37° C.; FIG. 3, 5, 14
Protocol: as §2, with “in” for “in rat,”
as §3, with “[…]” for “1 μM”
as §4, §5
For stability in mouse plasma, the incubation time was 0, 5, 15, 30 and 60 min for Peptide 1 and eucatropine; 0, 15, 30, 60, 120, 240 and 480 min for Peptide 12, Peptide 16 and Peptide 29.
In another stability study in mouse plasma, the incubation time was 0, 30, 60 and 120 min for Peptide 2 and eucatropine; 0, 30, 60, 120, 240 and 960 min for Peptide 52 and Peptide 54.
as §2, §3
For stability in mouse plasma, the incubation time was 0, 15, 30, 60 and 120 min for Peptide 1 and eucatropine; 0, 15, 30, 60, 120, and 240 min for Peptide 31.

normal C57BL/6J mice [10] = assay: Induction of small β-cell clusters in normal C57BL/6J mice (islet size distribution); format: in vivo, mouse; conditions: normal mice
Protocol: After a 1-week acclimation, C57BL/6J female mice were randomly divided into 4 groups. The two control groups received either 10 mL/kg sterile normal saline (n=4) or scrambled peptide (Peptide 3, 25 mg/kg) (n=5) via subcutaneous injection for 10 days. The other two groups received INGAP-PP (Peptide 1) or INGAP-PP analog Peptide 7 at a dose of 25 mg/kg per day respectively (n=7 per group) for the same period. Body weight and 6 hour fasting blood glucose were measured before treatment and after the last dosing of treatment. Plasma and pancreatic insulin were also measured at the end of the study. On day 11, the pancreas was removed from each animal, cleared of fat and lymph nodes, weighed, and fixed in 10% neutral buffered formalin (NBF) for no longer than 24 hours before processing for morphometric analysis.
Immunohistochemistry analysis was used to determine pancreatic islet size distribution.

Q: Which results are given for “Ac-IGLHDPSHGTLPAGS-OH [Peptide 12, Ac-IGLHDPSHGTLPAGS-OH]”?
A: glucose-stimulated insulin release vs islets without peptide (pancreatic islets): released significantly more insulin than those cultured without the addition of peptides; AUC(0-inf) [1]: 5890 ng·h/mL; AUC(0-t) [1]: 5870 ng·h/mL; Cmax [1]: 11600 ng/mL; AUC(0-inf) [2]: 8480 ng·h/mL; AUC(0-t) [2]: 8420 ng·h/mL; Cmax [2]: 14000 ng/mL; AUC(0-inf) [3]: 12600 ng·h/mL; AUC(0-t) [3]: 12600 ng·h/mL; Cmax [3]: 44300 ng/mL; islet neogenesis efficacy relative to INGAP-PP (normal C57BL/6J mice [4]): comparable or improved efficacy was achieved at a dose one tenth of INGAP-PP; AUC(0-inf) [5]: 11200 ± 1210 ng·h/mL; AUC(0-t) [5]: 11100 ± 1370 ng·h/mL; Cmax [5]: 21400 ± 1350 ng/mL; level at 0.5 h ([6]; Pancreas): 877 ± 261 ng/mL; level at 0.5 h ([6]; Plasma): 5370 ± 981 ng/mL; time stable in isotonic phosphate buffer (pH 7.4) at 4° C. [7]: more than 90 days; time stable in isotonic phosphate buffer (pH 7.4) at 25° C. [7]: 60 days

Q: For “Ac-IGLHDPTQGTEPAGE-NH2 [Peptide 62, Ac-IGLHDPTQGTEPAGE-NH2]”, which “stability in rat plasma” value [8] is on record?
A: The value was “exhibited good stability in rat plasma and were significantly more stable than HIP”.

Q: Which “stability in mouse plasma” value [9] does the source give for “Ac-IGLHDPTQGTEPAGE-OH [Peptide 52, Ac-IGLHDPTQGTEPAGE-OH]” here?
A: Its value is “exhibited good stability in mouse plasma and were significantly more stable than HIP”.

Q: And the “stability in rat plasma” value [8]?
A: Its value is “exhibited good stability in rat plasma and were significantly more stable than HIP”.

Q: With “Ac-IGLHDPTQGTEPNGE-OH [Peptide 54, Ac-IGLHDPTQGTEPNGE-OH]” as the substance, how does the “stability in mouse plasma” value [9] read?
A: Its value is “exhibited good stability in mouse plasma and were significantly more stable than HIP”.

Q: For “GLP-1: Glucagon like peptide-1, 100 nM, included as a positive control in GSIS (HAEGTFTSDVSSYLEGQAAKEFIAWLVKGR; ends and bridges not checked; UniProt P01275 98-127, looked up) [reference compound]”, which “glucose-stimulated insulin release vs islets without peptide” value (pancreatic islets) is on record?
A: The value was “released significantly more insulin than those cultured without the addition of peptides”.

Q: With “H-SHPNGSGTIGLHDPL-OH [Peptide 3, H-SHPNGSGTIGLHDPL-OH]” as the substance, how does the “effect on body weight, blood glucose, plasma insulin, pancreas insulin, pancreas weight” value (normal C57BL/6J mice [10]; 25 mg/kg per day sc for 10 days, compared to saline group) read?
A: The value was “did not affect body weight, blood glucose, plasma insulin, pancreas insulin, or pancreas weight”.

Q: And the “all parameters measured, scrambled peptide versus normal saline” value (normal C57BL/6J mice [10]; 25 mg/kg, 10 days)?
A: Its value is “no difference”.

From patent US9388215B2, “Compositions and methods of using islet neogenesis peptides and analogs thereof” (SHENZHEN HIGHTIDE BIOPHARMACEUTICAL, LTD., priority 2013, dated 2016)
